Values quoted from earlier work as cited in article PMC9851200, “Multiparameter phenotypic screening for endogenous TFEB and TFE3 translocation identifies novel chemical series modulating lysosome function” (Autophagy, 2022).

Key:
Design in all cases: method as in original PKIS2 published data
[1] = target: kinases (KINOMEscan panel) (Homo sapiens, UniProt Q07912); settings: TNK2; Published KINOMEscan; ref original PKIS2 published data; cited from earlier work
[2] = target: kinases (KINOMEscan panel) (Homo sapiens, UniProt P11362); settings: kinase FGFR1; Published KINOMEscan; ref original PKIS2 published data; cited from earlier work
[3] = target: kinases (KINOMEscan panel) (Homo sapiens, UniProt P31751); settings: Published KINOMEscan; ref original PKIS2 published data; cited from earlier work
[4] = target: kinases (KINOMEscan panel) (Homo sapiens, UniProt Q96GD4); settings: kinase AURKB; Published KINOMEscan; ref original PKIS2 published data; cited from earlier work
[5] = target: T1, kinases (KINOMEscan panel) (Homo sapiens, UniProt P42681); settings: kinase TXK; Published KINOMEscan; ref original PKIS2 published data; cited from earlier work
T1 sequence (P42681 1-527): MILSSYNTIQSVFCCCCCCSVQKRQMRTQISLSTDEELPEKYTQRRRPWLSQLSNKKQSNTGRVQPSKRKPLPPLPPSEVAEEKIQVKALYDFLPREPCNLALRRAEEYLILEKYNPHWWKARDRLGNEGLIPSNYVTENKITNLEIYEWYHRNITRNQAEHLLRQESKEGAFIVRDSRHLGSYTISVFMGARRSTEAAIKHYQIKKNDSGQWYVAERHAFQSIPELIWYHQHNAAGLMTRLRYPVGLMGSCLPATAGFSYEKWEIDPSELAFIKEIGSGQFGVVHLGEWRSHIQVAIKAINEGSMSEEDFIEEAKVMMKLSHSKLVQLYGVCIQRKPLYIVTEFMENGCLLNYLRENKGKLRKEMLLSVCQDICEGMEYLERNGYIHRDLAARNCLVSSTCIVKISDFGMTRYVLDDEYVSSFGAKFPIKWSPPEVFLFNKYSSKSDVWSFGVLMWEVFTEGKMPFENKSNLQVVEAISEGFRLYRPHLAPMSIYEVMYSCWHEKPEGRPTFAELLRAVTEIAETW

[6] = target: T2, kinases (KINOMEscan panel) (Homo sapiens, UniProt Q9UL54); settings: kinase TAOK2; Published KINOMEscan; ref original PKIS2 published data; cited from earlier work
T2 sequence (Q9UL54 1-1235): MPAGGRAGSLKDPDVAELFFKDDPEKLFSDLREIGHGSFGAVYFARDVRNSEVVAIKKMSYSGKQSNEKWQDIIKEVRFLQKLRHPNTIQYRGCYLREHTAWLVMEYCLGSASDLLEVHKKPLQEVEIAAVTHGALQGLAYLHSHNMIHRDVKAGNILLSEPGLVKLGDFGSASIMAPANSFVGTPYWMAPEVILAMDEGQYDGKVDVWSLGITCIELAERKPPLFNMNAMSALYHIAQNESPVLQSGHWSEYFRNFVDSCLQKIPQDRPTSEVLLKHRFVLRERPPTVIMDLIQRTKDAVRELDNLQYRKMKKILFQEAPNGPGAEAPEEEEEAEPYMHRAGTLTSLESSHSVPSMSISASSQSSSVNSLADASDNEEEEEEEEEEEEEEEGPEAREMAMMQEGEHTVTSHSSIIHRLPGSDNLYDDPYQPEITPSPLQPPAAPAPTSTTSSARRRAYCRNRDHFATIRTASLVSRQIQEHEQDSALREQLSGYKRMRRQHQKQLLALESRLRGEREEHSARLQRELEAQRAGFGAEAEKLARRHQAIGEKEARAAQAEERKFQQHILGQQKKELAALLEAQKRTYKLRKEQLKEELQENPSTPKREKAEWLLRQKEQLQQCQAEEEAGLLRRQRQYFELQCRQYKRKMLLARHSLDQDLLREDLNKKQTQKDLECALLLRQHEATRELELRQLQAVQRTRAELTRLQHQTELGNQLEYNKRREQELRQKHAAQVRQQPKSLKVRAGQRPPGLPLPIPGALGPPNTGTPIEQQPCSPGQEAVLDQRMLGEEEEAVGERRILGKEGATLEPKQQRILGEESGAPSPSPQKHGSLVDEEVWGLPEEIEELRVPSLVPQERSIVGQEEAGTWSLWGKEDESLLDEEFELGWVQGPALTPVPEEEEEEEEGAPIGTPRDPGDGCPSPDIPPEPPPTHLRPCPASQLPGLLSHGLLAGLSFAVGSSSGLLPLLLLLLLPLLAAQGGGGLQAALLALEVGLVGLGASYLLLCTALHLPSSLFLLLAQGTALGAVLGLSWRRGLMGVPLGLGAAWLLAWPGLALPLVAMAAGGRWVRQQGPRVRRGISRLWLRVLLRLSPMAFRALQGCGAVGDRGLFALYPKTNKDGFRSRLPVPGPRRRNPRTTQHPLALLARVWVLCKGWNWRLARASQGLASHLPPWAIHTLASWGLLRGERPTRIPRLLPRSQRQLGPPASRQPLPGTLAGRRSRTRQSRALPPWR

Chain of kinases (KINOMEscan panel) (Homo sapiens, UniProt Q96GD4) (Q96GD4 whole entry): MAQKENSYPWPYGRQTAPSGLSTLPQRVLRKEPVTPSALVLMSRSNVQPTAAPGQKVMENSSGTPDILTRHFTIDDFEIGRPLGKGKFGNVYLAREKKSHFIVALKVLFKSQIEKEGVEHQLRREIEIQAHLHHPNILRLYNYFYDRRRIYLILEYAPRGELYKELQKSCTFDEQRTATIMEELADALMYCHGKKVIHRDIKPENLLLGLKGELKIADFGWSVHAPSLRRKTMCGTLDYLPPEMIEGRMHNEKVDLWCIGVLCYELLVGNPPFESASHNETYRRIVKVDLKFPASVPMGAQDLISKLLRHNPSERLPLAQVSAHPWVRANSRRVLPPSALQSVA
Chain of kinases (KINOMEscan panel) (Homo sapiens, UniProt P31751) (P31751 whole entry): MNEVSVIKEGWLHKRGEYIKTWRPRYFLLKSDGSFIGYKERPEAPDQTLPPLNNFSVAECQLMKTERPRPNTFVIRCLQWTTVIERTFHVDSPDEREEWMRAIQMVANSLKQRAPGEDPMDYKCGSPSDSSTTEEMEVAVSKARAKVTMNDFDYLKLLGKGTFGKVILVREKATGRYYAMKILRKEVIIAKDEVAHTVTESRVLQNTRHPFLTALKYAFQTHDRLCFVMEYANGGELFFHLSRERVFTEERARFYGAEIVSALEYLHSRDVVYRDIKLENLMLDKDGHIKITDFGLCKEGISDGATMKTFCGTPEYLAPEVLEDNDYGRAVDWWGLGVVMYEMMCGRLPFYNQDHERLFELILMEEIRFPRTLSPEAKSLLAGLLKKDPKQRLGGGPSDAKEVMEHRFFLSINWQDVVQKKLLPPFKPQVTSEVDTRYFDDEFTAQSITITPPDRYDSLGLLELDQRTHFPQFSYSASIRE
Chain of kinases (KINOMEscan panel) (Homo sapiens, UniProt P11362) (P11362 22-822): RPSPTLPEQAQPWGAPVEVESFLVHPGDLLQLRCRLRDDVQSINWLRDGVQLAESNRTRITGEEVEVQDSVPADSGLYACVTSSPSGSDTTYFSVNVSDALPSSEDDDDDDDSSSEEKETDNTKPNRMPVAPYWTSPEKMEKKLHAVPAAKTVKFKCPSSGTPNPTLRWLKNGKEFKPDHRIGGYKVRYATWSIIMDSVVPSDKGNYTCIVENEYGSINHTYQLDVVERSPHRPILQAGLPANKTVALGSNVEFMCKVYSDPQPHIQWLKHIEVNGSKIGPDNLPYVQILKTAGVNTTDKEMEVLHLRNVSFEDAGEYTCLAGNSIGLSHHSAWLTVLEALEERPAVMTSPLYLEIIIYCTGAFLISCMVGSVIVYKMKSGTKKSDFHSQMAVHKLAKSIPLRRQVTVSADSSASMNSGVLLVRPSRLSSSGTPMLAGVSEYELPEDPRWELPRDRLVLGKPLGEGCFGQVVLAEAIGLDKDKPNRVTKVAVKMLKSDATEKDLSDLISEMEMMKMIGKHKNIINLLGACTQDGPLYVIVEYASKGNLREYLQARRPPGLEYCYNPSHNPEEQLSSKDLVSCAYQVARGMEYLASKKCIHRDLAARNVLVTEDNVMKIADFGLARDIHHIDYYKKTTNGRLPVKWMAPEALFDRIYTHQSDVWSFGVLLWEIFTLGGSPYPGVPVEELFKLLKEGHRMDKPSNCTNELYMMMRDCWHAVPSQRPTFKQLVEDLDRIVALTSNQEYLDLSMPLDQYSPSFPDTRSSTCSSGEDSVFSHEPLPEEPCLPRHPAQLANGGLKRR
Chain of kinases (KINOMEscan panel) (Homo sapiens, UniProt Q07912) (Q07912 whole entry): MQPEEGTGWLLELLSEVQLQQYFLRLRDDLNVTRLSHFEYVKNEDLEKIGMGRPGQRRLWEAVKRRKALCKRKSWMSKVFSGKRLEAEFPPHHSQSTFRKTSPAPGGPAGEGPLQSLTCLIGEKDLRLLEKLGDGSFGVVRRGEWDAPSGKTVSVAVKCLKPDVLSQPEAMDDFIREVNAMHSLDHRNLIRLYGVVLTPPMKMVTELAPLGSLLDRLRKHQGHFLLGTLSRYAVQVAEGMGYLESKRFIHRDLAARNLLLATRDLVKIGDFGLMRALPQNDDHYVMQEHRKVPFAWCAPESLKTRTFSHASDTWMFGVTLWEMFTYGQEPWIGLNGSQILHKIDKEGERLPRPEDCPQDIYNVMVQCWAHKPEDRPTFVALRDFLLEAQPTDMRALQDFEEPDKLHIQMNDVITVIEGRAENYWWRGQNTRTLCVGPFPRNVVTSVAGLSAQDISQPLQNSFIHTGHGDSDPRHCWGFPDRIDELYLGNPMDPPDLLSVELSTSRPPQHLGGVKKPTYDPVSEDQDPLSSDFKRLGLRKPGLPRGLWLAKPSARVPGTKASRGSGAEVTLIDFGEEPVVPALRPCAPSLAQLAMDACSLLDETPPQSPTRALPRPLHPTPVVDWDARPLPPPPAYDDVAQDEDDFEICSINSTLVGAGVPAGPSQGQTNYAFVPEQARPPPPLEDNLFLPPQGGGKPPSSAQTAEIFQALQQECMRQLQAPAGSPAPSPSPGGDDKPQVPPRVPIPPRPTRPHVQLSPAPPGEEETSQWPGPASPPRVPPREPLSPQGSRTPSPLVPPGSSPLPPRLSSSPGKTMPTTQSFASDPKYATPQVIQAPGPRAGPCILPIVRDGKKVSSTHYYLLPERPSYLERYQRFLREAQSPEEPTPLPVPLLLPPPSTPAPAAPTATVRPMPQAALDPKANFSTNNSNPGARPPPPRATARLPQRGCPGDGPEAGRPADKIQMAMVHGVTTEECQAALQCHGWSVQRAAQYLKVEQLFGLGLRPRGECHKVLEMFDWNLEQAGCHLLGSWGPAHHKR

Cc1cccc(-c2nc(Nc3ccncc3)c3ccccc3n2)n1 [NK215]
KINOMEscan TNK2 [1]: 0 | KINOMEscan FGFR1 [2]: 5 | KINOMEscan AKT2 [3]: 0 | KINOMEscan AURKB [4]: 10 | KINOMEscan TXK [5]: 11 | KINOMEscan TAOK2 [6]: 17
